From PMC13242511, “Disrupting Notch signalling by a small molecule inhibiting dihydroorotate dehydrogenase activity” (Scientific Reports, 2026)
Several values for one entry are separate records, joined by “and”; a condition that tells them apart may be missing. Equal values may be shown once. Entries after “also recorded” stand apart in the source; their conditions may differ. Read-outs that look alike come from different tables or passages of the source.

Experiments:
[1] = tested on: Notch signalling; experiment: Notch reporter assay (12xCSL firefly luciferase / renilla luciferase, HEK293T Notch1ΔE reporter cell line clone #A1-11); type: cell-based; parameters: AUC Notch: scale not given here; settings: for activity: 1,25µM; for AUC Notch: area under the 14-point dose-response curve; for concentrations associated with cytotoxicity (high dose-points removed): extended dose range, Supplemental Fig. 7B; for AUC 9p Notch reporter assay / AUC 14p Notch reporter assay: AUCs averaged when replicates available; for Bottom (Emax): Emax indicated independent from assay constraints, in % (unit assumed); for Notch assay: overview in comparison to compound C, Supplemental Fig. 9
In short: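 Compounds at two-fold concentration in 10 µl medium were brought to one-fold by adding 10 µl holding 4000 Notch reporter cells (clone #A1-11) per well of a 384-well plate. After 24 h, Promega dual-GLO firefly and renilla luciferase were read on a SpectraMaxi3. Dose-response curves were fitted with a log(inhibitor) vs. response variable-slope model.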

[2] = tested on: T-ALL and breast cancer cell lines; experiment: Growth inhibition in tumour cell lines (panel, cell lines not named singly); type: cell-based; parameters: key to tumor cell growth: + indicates that the compound had an effect; -: − indicates that there was no significant effect in the respective assay; settings: for tumor cell growth: summary Fig. 8E; for viability assay: overview in comparison to compound C, Supplemental Fig. 9; for IC50: six days, read-out: IC50, metabolic activity
Description: We next investigated whether compounds A-E affected growth and viability of cell lines from T-cell acute lymphoblastic leukaemia (T-ALL) and breast cancer, two tumour types in which elevated Notch signalling has been implicated in tumorigenesis. […] When testing analogues of compounds B and C, five of the seven B analogues and one of the two C analogues produced dose–response curves and IC50s, which however were higher compared to the original hits (Supplemental Fig. 5A; IC50s are presented in Supplemental Table 6).
Compounds were spotted on white 384-well tissue culture plates (Greiner, cat #781080) using an Echo 525 Acoustic liquid handler (Labcyte). Cells were grown to 80% confluence, detached if required, counted and 20 µl containing 2000–4000 cells per well was then seeded in each well and cultivated for three (4,000 cells seeded) and six days (2,000 cells seeded). […] Luciferase activity (reading out metabolic activity) was determined using the CellTiter-Glo 2.0 kit (CTG, Promega, cat #G9242) following the manufacturer’s instructions and luminescence was measured on a SpectraMaxi3 or Varioscan plate reader (Molecular Devices, Thermofisher).

[3] = Homo sapiens, HEK-293T, 14-point dose-response, Fig. 4, read-out: approximated IC50, Notch reporter assay
[4] = Homo sapiens, HEK-293T, 14-point, unit inferred, replicates averaged, read-out: approxiated IC50s 14p Notch reporter assay
[5] = Homo sapiens, HEK-293T, 14p Notch assay DR, bottom constrained to Emax of positive control DAPT, read-out: approximated IC50
[6] = Homo sapiens, HEK-293T, 14p Notch assay DR, bottom constrained to Emax of positive control RO4929097, read-out: approximated IC50
[7] = Homo sapiens, HEK-293T, 14p Notch assay DR, log10 value, bottom constrained to Emax of positive control DAPT, read-out: approximated LogIC50 (converted)
[8] = Homo sapiens, HEK-293T, 14p Notch assay DR, log10 value, bottom constrained to Emax of positive control RO4929097, read-out: approximated LogIC50 (converted)
[9] = Homo sapiens, HEK-293T, 10 µM, primary screen, 24 h, unit from Fig. 2 legend, read-out: Primary screen at 10 µM (Notch reporter signal)
[10] = Homo sapiens, HEK-293T, 10 µM, three-dose confirmation screen, unit from Fig. 2 legend, read-out: Hit confirmation at 10 µM (Notch reporter signal)
[11] = Homo sapiens, HEK-293T, 10 µM, sheet conf vs counter 10 µM, same values as 3-point DR confirmation screen, read-out: Confirmation screen
[12] = Homo sapiens, HEK-293T, 25 µM, Notch reporter 3-point dose-confirmation assay, sheet "conf vs counter 25 µM", read-out: Confirmation screen
[13] = Homo sapiens, HEK-293T, 3-point DR confirmation screen, Notch reporter assay, read-out: inhibitor ratio in % of DMSO in 3 point DR
[14] = 9p dose response, single replicates, read-out: approximated IC50s 9p Notch reporter assay
[15] = 14p dose response, single replicates, read-out: approximated IC50s 14p Notch reporter assay
[16] = Homo sapiens, HEK-293T, 10µM, 3-point DR confirmation screen, Notch reporter assay, read-out: inhibitor ratio in % of DMSO in 3 point DR
[17] = Homo sapiens, HEK-293T, 25µM, 3-point DR confirmation screen, Notch reporter assay, read-out: inhibitor ratio in % of DMSO in 3 point DR
[18] = Homo sapiens, HEK-293T, 9p dose response, averaged over replicates, read-out: 9p Notch reporter assay averaged IC50s
[19] = Homo sapiens, HEK-293T, 9p dose response, log10 of averaged IC50, read-out: 9p Notch reporter assay averaged IC50s (log) (converted)
[20] = Homo sapiens, HEK-293T, 14p Notch assay DR, log10 value, Notch inhibitor controls, no bottom constraint named, read-out: approximated LogIC50 (converted)
[21] = Homo sapiens, HEK-293T, 14p dose response, single replicates, read-out: approximated IC50s 14p Notch reporter assay
[22] = Homo sapiens, HEK-293T, 14p dose response, log10 of averaged IC50, read-out: 14p Notch reporter assay averaged IC50s (log) (converted)

SMILES | IC50 [1, 3] [nM] | IC50 [1, 4] [nM] | IC50 [1, 5] [nM] | IC50 [1, 6] [nM] | IC50 [1, 7] [nM] | IC50 [1, 8] [nM] | activity at 10 µM [1, 9] [%] | activity at 10 µM [1, 10] [%] | activity at 10 µM [1, 11] [%] | activity at 25 µM [1, 12] [%] | activity [1, 13] [%] | AUC Notch ([1]; replicates averaged) | concentrations associated with cytotoxicity (high dose-points removed) [1] | tumor cell growth [2] | AUC 9p Notch reporter assay ([1]; 9p dose response) | Bottom (Emax) ([1]; 14p Notch assay DR) | Notch assay [1] | viability assay [2] | activity at 10 µM [1, 16] [%] | activity at 25 µM [1, 17] [%] | also measured
Cc1ccc2[nH]c3c(c2c1)CCOC31CCN(Cc2ccccc2-c2ccccc2)CC1 [compound B] | 900 | 910 | 1200 | 590 | 1260 | 631 | 60.8 | 65 | 65 | 69.3 | 79.7 | 573.0 | higher than 5 µM | + |  |  |  |  |  |  | 
C[C@H](NC(=O)Cc1cc(F)cc(F)c1)C(=O)N[C@H](C(=O)OC(C)(C)C)c1ccccc1 [DAPT, reference compound] |  |  |  |  |  |  |  |  |  |  |  | 495.0 |  |  | 3.01E+02 | 42.8 and 41.0 | comparable | context specific |  |  | reporter signal in % of DMSO ([1]; 10 µM, inhibitor controls, Supplemental Fig. 2A): 49%; IC50 [1, 14]: 290 nM and 260 nM; IC50 ([1]; 9p dose response, averaged over replicates, read-out: 9p Notch reporter assay averaged IC50s): 280 nM; 9p Notch reporter assay averaged IC50s (log) ([1]; 9p dose response, log10 of averaged IC50): -6.6; IC50 ([1]; 14-point, unit inferred, replicates averaged, read-out: approxiated IC50s 14p Notch reporter assay): 440 nM; approximated LogIC50 [M] ([1]; 14p Notch assay DR, log10 value, Notch inhibitor controls, no bottom constraint named): -6.3 M; IC50 [1, 15]: 510 nM and 370 nM; AUC 14p Notch reporter assay ([1]; 14p dose response): 4.95E+02; 14p Notch reporter assay averaged IC50s (log) ([1]; 14p dose response, log10 of averaged IC50): -6.4; renilla signal ([1]; 384-well format): not affected
CCc1c(C(=O)N(C)Cc2cnn(C(C)C)c2)[nH]c2ccccc12 [compound A] | 3300 | 3400 | 4200 | 2500 | 3980 | 2510 | 25.3 | 27.7 | 27.7 | 19 | 65.8 | 535.0 |  | - |  |  |  |  | 27.7 | 19 | IC50 ([1]; Homo sapiens, HEK-293T, 14-point dose-response, read-out: approximated IC50, Notch reporter assay): 4000 nM; IC50 ([2]; all cell lines (breast cancer)): > 10000 nM
CC(C)(C)c1ccc(Oc2ccc(N)cn2)cc1 [CB-103, reference compound] |  | 5500 |  |  |  |  |  |  |  |  |  | 546.0 |  |  | 3.40E+02 |  | lower potency; also recorded: lower activity than compound C | context specific |  |  | IC50 [1, 15]: 5800 nM; AUC 14p Notch reporter assay ([1]; 14p dose response): 5.46E+02; IC50 [1, 18]: 15000 nM; IC50 [1, 19]: 15800 nM; IC50 [1, 20]: 6310 nM; IC50 [1, 21]: 5100 nM; IC50 [1, 22]: 5010 nM
CC(C)(C(=O)NCC(F)(F)C(F)(F)F)C(=O)N[C@@H]1C(=O)Nc2ccccc2-c2ccccc21 [RO4929097, reference compound] |  | 53 |  |  |  |  |  |  |  |  |  | 430.0 |  |  | 2.36E+02 |  | higher potency | context specific |  |  | IC50 [1, 14]: 31 nM and 13 nM; IC50 [1, 15]: 45 nM; AUC 14p Notch reporter assay ([1]; 14p dose response): 4.30E+02; IC50 [1, 18]: 22 nM; IC50 [1, 19]: 20 nM; IC50 ([1]; Homo sapiens, HEK-293T, 14p Notch assay DR, Notch inhibitor controls, no bottom constraint named, read-out: approximated IC50): 21.7 nM; IC50 ([1]; Homo sapiens, HEK-293T, 14p Notch assay DR, averaged when replicate measurements were available, read-out: averaged IC50s): 42 nM; IC50 [1, 20]: 63.1 nM; IC50 [1, 21]: 60 nM; IC50 [1, 22]: 50.1 nM
COc1cccc(CNc2ccc(N3CCCCC3)cc2)c1OCc1cccs1 [compound C] |  | 1200 |  |  | 1260 |  | 50.1 | 66.2 | 66.2 | 65.1 | 61.8 | 584.0 | higher than 12.5 µM | + |  | 45.4 | nanomolar potency | context specific | 66.2 | 65.1 | Hill slope, Notch reporter assay ([1]; 14-point dose-response): -16.2; IC50 ([1]; Homo sapiens, HEK-293T, dose range 50 µM-2.5 nM, Fig. 7E, read-out: IC50, Notch reporter activity): 150 nM; IC50 ([2]; Homo sapiens, the other breast cancer cell lines (other than MDA-MB-468)): > 10000 nM
Cc1nn(-c2nc3ccccc3s2)c(O)c1C1OC(=O)c2ccccc21 (stereo not drawn) [compound E] | 730 |  |  |  | 794 |  | 45 | 38 | 38 | 35.2 | 37.1 | 577.0 |  | - |  | 54.2 |  |  | 38 | 35.2 | IC50 ([1]; 14-point dose-response, Fig. 4, read-out: approximated IC50, Notch reporter assay): 700 nM; IC50 ([2]; all cell lines (breast cancer)): > 10000 nM
NC(=O)c1c(NC(=O)NCc2cccnc2)sc2c1CCC2 [compound D] | 1000 | 780 | 1300 | 230 | 1580 | 251 | 44.7 | 47 | 47 | 55.6 | 91 | 273.0 | higher than 12.5 µM | - |  |  |  |  | 47 | 55.6 | Hill slope, Notch reporter assay ([1]; 14-point dose-response): -1.7; IC50 ([2]; all cell lines (breast cancer)): > 10000 nM
